# In ChEMBL document CHEMBL3507680, “University of Dundee, Gates Library screen for HepG2 cell viability”:
# Assay: Human HepG2 cell viability assay in 384 well format
# Assay type: toxicity, cell-based
# Set-up: dose 125 nL, time 70.5 hour; concentration not given beside the values
# Settings: HepG2 cells, read-out: Inhibition
row,Compound,cytotoxicity at 70.5 h [%]
1,CC(C)=CCN1C[C@H]2CC[C@@H]1CN(C(=O)Cn1c(C)cc(C)nc1=O)C2,-4.66
2,COC(=O)CC1CCCCN1CC(=O)Nc1ccc(F)cc1Cl (stereo unspecified),21.6
3,O=C(CSCC1CC1)N1CCCC(c2nccn2Cc2ccncc2)C1 (stereo unspecified),-9.73
4,COCc1ccccc1NC(=O)[C@@H]1CCCN1C(=O)c1ccco1,-8.02
5,CCN(Cc1ccncc1)c1cc(C2CCNCC2)nc(C)n1,19.5
6,O=C(O)c1cnc(N2CCC(c3nccn3CC3CC3)CC2)c(Cl)c1,-8.03
7,Cc1cc(N(C)C)nc(N2CCCC2c2cccnc2)n1 (stereo unspecified),-1.47
8,Cc1ccnc(C2CCN(C(=O)CCn3ncc4ccccc43)C2)n1 (stereo unspecified),-8.45
9,CCOc1ncccc1CNC(=O)NCCNC(=O)c1ccco1,-4.58
10,CC(=O)N1CCC(Cc2nccnc2-c2c(C)n[nH]c2C)C1 (stereo unspecified),-8.33
11,CSCC(CCO)NC(=O)Nc1cc(F)ccc1C (stereo unspecified),10.3
12,Cc1cc(C)n(C2CCCN(C(=O)CCCc3ccccn3)C2)n1 (stereo unspecified),-0.29
13,CN(Cc1ccc2c(c1)OCO2)C(=O)Cn1cccnc1=O,17.3
14,CC(C)N1CCCC(CNC(=O)c2ccnc(-n3ccnc3)c2)C1 (stereo unspecified),-4.35
15,CO[C@@H]1CCN(Cc2ccoc2)[C@@H]2CN(Cc3ccco3)C[C@@H]21,-5.98
16,Cc1cc(NC(=O)CN(C)CC2CCCN2c2cccnn2)n(C)n1 (stereo unspecified),-5.26
17,CNC(=O)CN1CCOCC12CCN(C(=O)c1ccccc1)CC2,-5.33
18,N#Cc1cccc(CN2C(=O)C3(CCNCC3)Nc3ccccc32)c1,13.4
19,CC(C)C[C@H](NC(=O)c1cc(-c2cccn2C)n[nH]1)C(N)=O,-0.791
20,CC(C)(C)NCc1ccc(OCc2ccc3c(c2)OCCO3)cc1,8.79
21,Cc1ccc2c(n1)N(CCN(C)C)CCN(C(=O)c1ccc[nH]1)C2,0.599
22,O=C(CCc1nc(Cl)n[nH]1)N1C[C@@H](CN2CCCCC2)[C@@H](CO)C1,-6.93
23,Cc1ccnn1CCC(=O)N(Cc1ccsc1)CC(C)C,-2.24

row,Compound,cytotoxicity at 70.5 h [%]
1,CN(C)C(=O)C1CCN(Cn2ccc(-c3ccc(F)cc3)n2)CC1,-12.5
2,Cc1nc(O)ccc1C(=O)NCc1ncoc1C,-2.74
3,Cc1ccnc(NC(=O)C2CCCO2)c1 (stereo unspecified),6.19
4,Cn1c(C(F)(F)F)nn(CCNC(=O)NCc2ccccc2)c1=O,16.5
5,Cc1cn(-c2ccccc2)nc1NS(=O)(=O)c1cccc(C(=O)O)c1,-1.1
6,COc1ccc(C(=O)C2CCCN(c3nccc(N)n3)C2)c(C)c1 (stereo unspecified),-4.73
7,CN1CCCC(c2ccc(N3CCOCC3)cn2)C1 (stereo unspecified),-3.9
8,Cc1cc(N2CCC3(CCCN(CCO)C3=O)C2)nc2cc(Cl)ccc12 (stereo unspecified),-19.8
9,COCCc1noc(C2CCCN(c3nc(N)nc4c3CCCC4)C2)n1 (stereo unspecified),3.87
10,Nc1ccnc(N2C[C@@H]3CC[C@H](C2)N(CC2CCC2)C3=O)n1,-3.52
11,NC(=O)CCn1cc(CNCCCc2ccccc2O)c2ccccc21,8.33
12,CN(C)CCOCC1CN(Cc2ccsc2)Cc2ccnn2C1 (stereo unspecified),3.88
13,CCn1c(C)cc(C(=O)NCc2cccc(S(=O)(=O)NC)c2)c1C,-4.15
14,Cc1nc(N)cc(C2CN(C(=O)c3cscn3)CCO2)n1 (stereo unspecified),-10.9
15,CC(=O)N1[C@H](CN(C)C)C[C@@H]2CN(C(=O)c3ccsc3)CC[C@@H]21,-12.2
16,Cc1cc(C)n(CC2CCCN2C(=O)Cc2cn3ccccc3n2)n1 (stereo unspecified),-3.71
17,Cn1cc(CN2CCC(CCC(=O)Nc3ccccc3Cl)CC2)cn1,4.76
18,CN(Cc1cscn1)C1CCCN(Cc2noc(C3CC3)n2)C1 (stereo unspecified),22.4
19,C[C@@H]1CN(C(=O)C2(Cn3cccn3)CC2)CC[C@@]1(O)C1CCOCC1,-0.0584
20,CNS(=O)(=O)c1ccc(CN2CCCN(CC(C)C)CC2)cc1,-0.0493
21,COc1ncccc1CNC(=O)N1CCC(CN2CCOCC2)CC1,13.3
22,CC(=O)N1CCOC2(CCCN(Cc3ccc(Cl)c(C(F)(F)F)c3)C2)C1 (stereo unspecified),-1.77
23,Cn1cnc2c1C(C(=O)N1CCCC1)N(S(C)(=O)=O)CC2 (stereo unspecified),-7.56

row,Compound,cytotoxicity at 70.5 h [%]
1,CSc1ccc(CN2CCn3nc(CNC(C)=O)cc3C2)cc1,-28.8
2,Cc1noc(C)c1CN1CCO[C@H]2CN(C(=O)N3CCCC3)C[C@H]21,0.539
3,OCc1cnc(Nc2ccccc2)nc1,10.1
4,CN(Cc1ccsc1)C(=O)c1cccc(S(=O)(=O)NC(C)(C)C)c1,-2.95
5,CCS(=O)(=O)Cc1nc(-c2cnn3c(C)cc(C)nc23)no1,-116
6,COCCCNC(=O)NCc1ccc(C)cc1,8.59
7,Cc1ccc2c(c1)c(CNC(=O)C1CC(=O)N(C3CC3)C1)nn2C (stereo unspecified),-4.12
8,O=C(c1csnn1)N1CCc2[nH]nc(COc3cccc(Cl)c3)c2C1,-2.42
9,CCCn1nc(C(=O)NCc2nnc3n2CCC3)ccc1=O,22.5
10,Cc1noc(C)c1CNCC1CCCN1c1cccnn1 (stereo unspecified),22.6
11,CN(Cc1ccc(N(C)C)cc1)C(=O)CSc1ccc(Br)cc1,-9.49
12,CCOc1cc(C)nc(N2CCN(C(=O)C(C)NC(C)=O)CC2)n1 (stereo unspecified),-1.89
13,CN1N=C(C(=O)N2CCCN(c3ncccc3C#N)CC2)CCC1=O,3.72
14,Cc1cc(NCCNS(=O)(=O)c2cccc(Cl)c2)nc(C)n1,-1
15,Cc1n[nH]c(C)c1CCN(C)C(=O)c1ccc(CN2CCCCC2)cc1,34.3
16,Cc1ccc(N2CC[C@@H]3[C@@H]2CCN3C(=O)Cc2ccsc2)nn1,-4.23
17,O=C(c1ccncc1)N1CC[C@H]2[C@H]1CCN2S(=O)(=O)C1CC1,-5.53
18,CCN(C)S(=O)(=O)NCC1CCCN(Cc2ccccc2F)C1 (stereo unspecified),-4.79
19,CCNC(=O)[C@@H]1C[C@H](NC(=O)c2cncnc2C)CN1CCCSC,-1.96
20,CN1CCN(C(=O)N2CCCC(c3nccn3CC3CCC3)C2)CC1 (stereo unspecified),-15.8
21,CCn1cc(NC(=O)NCC(O)c2ccccc2)cn1 (stereo unspecified),2.91
22,O=C([C@@H]1COC[C@H]2CN(CC3CCCC3)C[C@H]21)N1CCOCC1,-7.37
23,O=C(Nc1ccc2c(c1)C(=O)NC2)c1ccc(S(=O)(=O)C(F)(F)F)cc1,-2.46

row,Compound,cytotoxicity at 70.5 h [%]
1,CCCc1nc(NCc2c(C)nn(CCC)c2C)c2cnn(C)c2n1,-9.62
2,COCCOCC(=O)NC(C#N)c1ccccc1C (stereo unspecified),-7.18
3,CC1CCc2nc(O)c(C(=O)NCCN(C)C)cc2C1 (stereo unspecified),-18.1
4,O=C(Nc1cccc2c1CCCC2)C1CCCN1c1nccs1 (stereo unspecified),2.35
5,Cc1cc(C(F)(F)F)cc(N2C[C@@H](CN(C)CCO)[C@@H](CO)C2)n1,2.18
6,O=C1CC2(CCCCN2C(=O)c2ccncc2)CN1CC1CC1 (stereo unspecified),1.69
7,CC(=O)NC1CCCN(c2nc3ccccc3cc2CO)C1 (stereo unspecified),2.9
8,CC(=O)N(C)[C@H]1CC[C@]2(CC1)CNC(=O)c1cc(C)ccc1O2,-11.3
9,COc1cccc(-c2cccc(CN3C[C@@H]4CC[C@H](C3)N(C)C4=O)c2)c1,14.8
10,CC(C)(C)c1cnc(CN(Cc2cccnc2)CC2CCCO2)o1 (stereo unspecified),-12.3
11,Cc1noc(CS(=O)(=O)C(C)C(=O)N(C)c2ccccc2)n1 (stereo unspecified),-23.3
12,COc1cccc2c1OCC(C(=O)N(C)CCCc1cnn(C)c1)C2 (stereo unspecified),-1.77
13,CCCn1ccnc1-c1nccn1CCn1cnnc1,-6.38
14,CC(C(=O)N(C)Cc1ccc(Br)o1)n1cncn1 (stereo unspecified),-1.04
15,CNC(=O)C1(C)CN(c2nnc(C)c3ccccc23)CCO1 (stereo unspecified),-6.81
16,O=C(OCc1cc(=O)n2cc(Br)ccc2n1)c1ccc2c(c1)OCO2,-5.88
17,Cc1cccc(CN2CCO[C@H]3[C@@H](OCc4ccncc4)CC[C@@H]32)n1,-7.09
18,O=C(CN1C(=O)c2ccccc2CS1(=O)=O)c1ccc(Cl)cc1,7.63
19,Cc1cc(CN(C)C2CCCN(c3cccnn3)C2)on1 (stereo unspecified),28.9
20,CC(=O)NCc1ccc(C(=O)N2CCCc3c(F)ccc(C)c32)o1,-2.6
21,CO[C@H]1CN(C(C)C)C[C@@H]1NC(=O)c1cc(-c2ccccc2F)n[nH]1,-6.15
22,NCCn1nc(C2CCN(Cc3ccc(Cl)c(Cl)c3)C2)c2nccnc21 (stereo unspecified),-4.77
23,CC(C)(O)CCc1cccc(C(=O)NCC2CN(S(C)(=O)=O)CCO2)c1 (stereo unspecified),10.1

row,Compound,cytotoxicity at 70.5 h [%]
1,COCC(c1cccc(C(F)(F)F)c1)N(C)C(=O)c1cnccn1 (stereo unspecified),-9.11
2,Cc1cc(C(=O)NCC(c2ccccc2Cl)N2CCOCC2)on1 (stereo unspecified),-1.66
3,Cc1cc(CNCC2Cn3nnc(C)c3CO2)oc1C (stereo unspecified),-7.06
4,CCc1nc(C2CCCN(c3nccc(N4CCCC4)n3)C2)no1 (stereo unspecified),-0.206
5,O=C(CCCc1ccccn1)N1CCCC1c1noc(C2CC2)n1 (stereo unspecified),-9.72
6,CC(CCN1CCCn2nc(CNS(C)(=O)=O)cc2C1)c1ccccc1 (stereo unspecified),17.7
7,COc1ccc(CN2CCn3cc(CNC(=O)CC4CC4)nc3C2)cc1,-8.89
8,CNC(=O)C1CCCCN1C(=O)Cc1csc(-c2ccc(C)o2)n1 (stereo unspecified),-11.8
9,CC(C)c1nc(C2CCCN(c3ncccn3)C2)no1 (stereo unspecified),-10.3
10,CNC(=O)c1cccnc1N1CCC(OCc2ccccc2)CC1,-19.8
11,CCc1[nH]c2c(CNC(=O)C3CNC(=O)C3)cc(C)cc2c1C (stereo unspecified),-11.3
12,O=C(NCC1CC1)C1=NOC2(CCN(Cc3ccsc3)C2)C1 (stereo unspecified),-7.31
13,COc1ccc(C[C@H]2CN(C(=O)c3cc(C)no3)CC[C@H]2OC)cc1,-5.12
14,Cn1cc(CN2CC[C@@H]3[C@@H](CCC(=O)N3CCC3=CCCCC3)C2)cn1,-4.77
15,Cc1ccc(CN2CCC(NC(=O)c3scnc3C)CC2)cc1,3.8
16,O=C(CCc1ccccn1)N1CCc2cc(Cl)cc(Cl)c2C1,29.3
17,N#Cc1cc(NC(=O)c2ccccn2)ccc1N1CCC(O)CC1,-3.91
18,CNC(=O)C1CCCN(C(=O)OC)C1 (stereo unspecified),-5.12
19,Cc1nc(CNC(=O)NCc2cccnc2N(C)C)cs1,-5.06
